According to patent US20200121716A1, “Method for Inhibiting Both Glycolysis and Glutamine Metabolism in Cells and Use Thereof” (priority 2017, published 2020):

Tested on: anaerobia
Test: spontaneous anaerobic fermentation of flour paste sealed with rapeseed oil
Type: cell-based

## O=CO [formic acid]
  aqueous solution above the settled flour: clear and transparent

## O=C([O-])C(=O)[O-].[Na+].[Na+] [sodium oxalate]
  aqueous solution above the settled flour: clear and transparent
